According to patent publication US7342025B2, “Substituted C-imidazo[1,2-a]pyridin-3-yl-methylamines” (Gruenenthal GmbH, priority 2002, dated 2008):

Target: nitrogen monoxide synthase (Rattus norvegicus, UniProt P29476)
Assay: citrulline assay, inhibition of NO synthase
Assay type: biochemical
Description: The IC50 value of each of the example compounds as an inhibitor of NO synthase was determined in a citrulline assay. This assay was carried out as described by D. S. Bredt and S. H. Snyder (Proc. Natl. Acad. Sci. USA (1990), 87, 682-685).

Row | IC50 | SMILES
1 | 2.5 µM | Cc1ccnc(NCc2c(C)nc3cc(C)ccn23)c1 [Example 2, (2,7-Dimethyl-imidazo[1,2-a]pyridin-3-ylmethyl)-(4-methyl-pyridin-2-yl)-amine]
2 | 4 µM | Cc1ccn2c(CN(C)C)c(C)nc2c1 [Example 1]
